In patent publication US10004753B2, “Methods for treating tauopathy” (The J. David Gladstone Institutes, priority 2015, dated 2018):

Tests used:
[1] = PK analyses of salsalate (SSA) and salicylic acid (SA) in brain and plasma; assay type: in vivo, C57B6 mice; settings: oral gavage, single bolus dose, mice
Experimental: SSA was administered to C57B6 mice via oral gavage as a single bolus dose. Mice were sacrificed at predetermined time points and plasma and brain tissue samples were harvested for analysis by PPL labs (Redwood City, Calif., USA). SSA and its metabolite SA were measured simultaneously using oxopropanoyloxy benzoic acid as an internal standard solution. To extract SSA/SA from brain, 200 μl of 50% Acetonitrile in 0.1% formic acid was added to 30-50 mg of cortical tissue, followed by homogenization and vortexing. After addition of 200 μl of the internal standard solution, the samples were centrifuged and the supernatants were transferred for injection. To measure SSA/SA in the plasma, 10 μl of plasma samples were mixed with 90 μl H2O and 100 μl of Internal Standard Solution, followed by centrifugation and injection. HPLC was performed using a C18 column following a gradient program (10% to 90% acetonitrile over a period of 6 min) with a flow rate of 0.4 ml/min. The injection volume was ˜5 μl. Mass spectrometry analyses were performed on 3200 Q TRAP system (AB SCIEX, Framingham, Mass. USA.) using an MQL algorithm.

PS19 mice [2] = experiment: Fixed Location Dry Maze; assay type: in vivo, mouse; settings: 225 mg/kg oral gavage for 8 weeks; 7-8 month old PS19 mice
Experimental: For SSA treatment experiments, only female PS19 mice obtained from Jackson Laboratory were used. The mice were housed in a conventional facility at Stanford University (Palo Alto, Calif.<USA) with a 12-h light/dark reverse cycle and ad libitum access to food and water. All behavior experiments of PS19 mice were performed during daylight hours and carried out under Stanford University School of Medicine, Institutional Animal Care and Use Committee-approved guidelines.
The Fixed Location Dry Maze is also called DMP dry maze (Faizi, M., et al. Brain Behav 2, 142-154 (2012)). Experiments were performed at an animal facility at Stanford University (Palo Alto, Calif.). Mice were housed at a standard temperature (22±1° C.), in a reverse light-controlled environment (lights off from 8:30 am to 8:30 pm) with ad libitum access to food and water. Animals are group-housed with minimal enrichment such as shelter (paper towel tubes and nestlets). The experimenter remained blinded to the experimental groups throughout the entire study. […] The subjects were monitored by a video tracking system directly above maze, and the parameters were measured using the computer software Ethovision. […] Time in each quadrant was recorded and memory was assessed by the time spent in the target quadrant versus the other three quadrants. […]

PS19 mice [3] = experiment: Hippocampal volume and NeuN-positive cell number; assay type: in vivo, mouse; settings: 10 months old PS19 mice vs wild-type littermates
Source text: The neurodegeneration phenotype of PS19 mice was examined by measuring hippocampal volume and NeuN-positive cell number. […] (FIG. 4A) 10 months old PS19 mice have significant hippocampal volume loss compared to wild-type, which is absent in SSA-treated group. Left. Representative nissl staining of hippocampus from vehicle-treated WT, vehicle-treated PS19 and SSA-treated PS19 mice. ***, p<0.001, *, p<0.05 (two-tails unpaired t-test). Error bar, S.E.M. Scale bar, 500 um. (FIG. 4B) 10 months old PS19 mice have significant reduction of NeuN-positive cells compared to wild-type, which is absent in SSA-treated group. Left. Representative NeuN staining of hippocampus from vehicle-treated WT, vehicle-treated PS19 and SSA-treated PS19 mice. **, p<0.01 (two-tails unpaired t-test). Error bar, S.E.M. (FIG. 4C) NeuN number positively correlates with time spent in target quadrant in dry maze. p=0.0142 (linear regression).

PS19 mice [4] = experiment: Western blot of ac-tau, p-tau, t-tau, p300 and ac-H2A in hippocampal/brain lysate; assay type: in vivo, mouse
Source text: The levels of ac-tau and phospho-tau in the hippocampal lysate of PS19 mice were examined (FIG. 5A).
Salsalate treatment in PS19 mice inhibits p300 activity and reduces tau acetylation. (FIG. 5A) Representative Western blot showing levels of ac-tau, p-tau, t-tau and GAPDH in brain lysate of PS19 mice treated with salsalate (SSA) or vehicle (veh). Wild-type (WT) littermates treated with vehicle and tau knockout (KO) mice were included as controls. (FIG. 5B) Quantification of ac-tau and p-tau levels in brain lysate of PS19 mice treated with vehicle or salsalate. ac-tau/t-tau and p-tau/t-tau in vehicle-treated group were set as 1. n=8. **, p<0.01 (two-tails unpaired t-test). Error bar, S.E.M. (FIG. 5C) Representative Western blot showing levels of p300, ac-H2A(K5), H2A and GAPDH in brain lysate of PS19 mice treated with salsalate (SSA) or vehicle (veh). (FIG. 5D) Quantification of p300 and ac-H2A levels in brain lysate of PS19 mice treated with vehicle or salsalate. p300/GAPDH and ac-H2A/H2A in vehicle-treated group were set as 1. n=8. *, p<0.05 (two-tails unpaired t-test). Error bar, S.E.M.

AAV-K174Q-injected mice = experiment: SSA treatment of AAV-K174Q-injected mice; assay type: in vivo, mouse
Source text: FIG. 8 provides (Left) an immunoblot analysis of ac-H2AK5, H2A, p-tau (AT8 and PHF-1), t-tau (HT7) and GAPDH in mice infected with AAV-K174Q and treated with SSA or vehicle; and (Right) a graph depicting the results of a quantification of ac-H2AK5 and H2A. n=11 (vehicle) or 10 (SSA) mice; *P<0.05, unpaired Student's t-test; values are mean±s.e.m.
ELISA analysis of K174Q tau after SSA treatment. n=11 (vehicle) or 10 (SSA) mice; ns, not significant; P=0.3647; unpaired Student's t-test; values are mean±s.e.m.
FIG. 10 provides graphs showing that levels of PHF1-positive p-tau relative to t-tau, or AT8-positive p-tau normalized by t-tau or GAPDH, were not affected by SSA treatment. Levels of PHF-1-positive p-tau normalized to HT7 (left) or AT8-positive p-tau normalized to HT7 (middle) or GAPDH (right) after SSA treatment. n=11 (vehicle) or 10 (SSA) mice; ns, not significant, unpaired Student's t-test. Values are mean±s.e.m.
Nissl staining (left) and hippocampal volume (right) in mice expressing K174Q tau after SSA treatment. Scale bars, 500 μm; n=11 (vehicle) or 10 (SSA) mice; ns, not significant, unpaired Student's t-test. Values are mean±s.e.m.
For AAV-Tau (adeno-associated virus encoding Tau) injection experiments, only male mice were purchased from Jackson Laboratory with the same age and genetic background (C57BL/6) and used for all the experiments. The mice were housed in a pathogen-free barrier facility at UCSF with a 12-h light/dark cycle and ad libitum access to food and water. All behavior experiments were performed during daylight hours. All animal procedures were carried out under University of California, San Francisco, Institutional Animal Care and Use Committee-approved guidelines.
To determine if SSA's beneficial effects involve inhibition of ac-K174 in vivo. Two-month after injecting with AAV-K174Q, mice were treated with SSA daily as previously performed in PS19 mice. Ac-H2AK5 levels were reduced in the SSA-treated group, confirming inhibition of p300 by SSA (FIG. 8). […] Levels of PHF1-positive p-tau relative to t-tau, or AT8-positive p-tau normalized by t-tau or GAPDH, were also not affected by SSA treatment (FIG. 10).

PS19 mice [5] = experiment: NFT analysis by Gallyas silver staining; assay type: in vivo, mouse; settings: female and male cohorts, age 10-11 months
Source text: FIGS. 12A and 12B provide silver staining results in neurites from neocortex and hippocampal regions for mice treated with SSA. Analysis of NFTs by Gallyas silver staining (FIG. 12A) and quantification of silver-positive cells in neurites from neocortex and hippocampal regions CA1 and CA3 (FIG. 12B) in vehicle-treated NTG mice and PS19 mice treated with vehicle or SSA. Scale bar, 250 μm (c, top); 25 μm (c, middle and bottom); n=8 mice (age 10-11 months) per genotype per treatment; *P<0.05, unpaired Student's t-test. Values are mean±s.e.m.
Prominent NFTs and dystrophic neurites, positive for Gallyas silver staining, were detected throughout the forebrains in PS19 mice (FIG. 12A).

[6] = tested on: HEK293 cells overexpressing hTau (WT) and p300; experiment: Ac-tau and p-tau Western blot in HEK293 cells treated with salicylate; assay type: cell-based, human; settings: 0, 5, 10 mM salicylate for 24 hr
Experimental: To examine the effects of salicylate treatment on tau acetylation and phosphorylation, HEK293 cells overexpressing hTau (WT) and p300 were treated with sodium salicylate (SS).
FIGS. 1A-1D. Salicylate inhibits p300 and reduces ac-tau and p-tau in vitro (FIG. 1A) HEK293 cells overexpressing wild-type human tau were treated with 0, 5, 10 mM salicylate for 24 hr. Representative Western blot of four experiments. (FIG. 1B) Quantification of ac-tau and p-tau levels in HEK293 cells treated with salicylate. ac-tau/t-tau, p-tau/t-tau in non-treated cells were set as 1. n=4. **, p<0.01, ***, p<0.001 (two-tails unpaired t-test). Error bar, S.E.M. (FIG. 1C) Rat primary cortical neurons infected with lenti-hTau (WT) were treated with 0, 5, or 10 mM salicylate for 24 hr. Representative Western blot of four experiments. (FIG. 1D) Quantification of ac-tau, p-tau and p300 levels in primary neurons treated with salicylate. ac-tau/t-tau, p-tau/t-tau and p300/GAPDH in non-treated cells were set as 1. n=4. *, p<0.05, **, p<0.01, ***, p<0.001 (two-tails unpaired t-test). Error bar, S.E.M.

[7] = tested on: primary neurons, K174Q tau; experiment: Tau-lowering effect of salicylate on K174Q mutant tau in primary neurons; assay type: cell-based; settings: K174 mutated to glutamine
p300 = p300 (Homo sapiens, UniProt Q09472); settings: recently identified; cited from earlier work
[8] = brain lysate of PS19 mice, vs vehicle
[9] = hippocampal lysate of PS19 mice, vs vehicle-treated group
[10] = AAV-K174Q-injected mice, vs vehicle

Sequence of p300 (Q09472 whole entry, species assumed): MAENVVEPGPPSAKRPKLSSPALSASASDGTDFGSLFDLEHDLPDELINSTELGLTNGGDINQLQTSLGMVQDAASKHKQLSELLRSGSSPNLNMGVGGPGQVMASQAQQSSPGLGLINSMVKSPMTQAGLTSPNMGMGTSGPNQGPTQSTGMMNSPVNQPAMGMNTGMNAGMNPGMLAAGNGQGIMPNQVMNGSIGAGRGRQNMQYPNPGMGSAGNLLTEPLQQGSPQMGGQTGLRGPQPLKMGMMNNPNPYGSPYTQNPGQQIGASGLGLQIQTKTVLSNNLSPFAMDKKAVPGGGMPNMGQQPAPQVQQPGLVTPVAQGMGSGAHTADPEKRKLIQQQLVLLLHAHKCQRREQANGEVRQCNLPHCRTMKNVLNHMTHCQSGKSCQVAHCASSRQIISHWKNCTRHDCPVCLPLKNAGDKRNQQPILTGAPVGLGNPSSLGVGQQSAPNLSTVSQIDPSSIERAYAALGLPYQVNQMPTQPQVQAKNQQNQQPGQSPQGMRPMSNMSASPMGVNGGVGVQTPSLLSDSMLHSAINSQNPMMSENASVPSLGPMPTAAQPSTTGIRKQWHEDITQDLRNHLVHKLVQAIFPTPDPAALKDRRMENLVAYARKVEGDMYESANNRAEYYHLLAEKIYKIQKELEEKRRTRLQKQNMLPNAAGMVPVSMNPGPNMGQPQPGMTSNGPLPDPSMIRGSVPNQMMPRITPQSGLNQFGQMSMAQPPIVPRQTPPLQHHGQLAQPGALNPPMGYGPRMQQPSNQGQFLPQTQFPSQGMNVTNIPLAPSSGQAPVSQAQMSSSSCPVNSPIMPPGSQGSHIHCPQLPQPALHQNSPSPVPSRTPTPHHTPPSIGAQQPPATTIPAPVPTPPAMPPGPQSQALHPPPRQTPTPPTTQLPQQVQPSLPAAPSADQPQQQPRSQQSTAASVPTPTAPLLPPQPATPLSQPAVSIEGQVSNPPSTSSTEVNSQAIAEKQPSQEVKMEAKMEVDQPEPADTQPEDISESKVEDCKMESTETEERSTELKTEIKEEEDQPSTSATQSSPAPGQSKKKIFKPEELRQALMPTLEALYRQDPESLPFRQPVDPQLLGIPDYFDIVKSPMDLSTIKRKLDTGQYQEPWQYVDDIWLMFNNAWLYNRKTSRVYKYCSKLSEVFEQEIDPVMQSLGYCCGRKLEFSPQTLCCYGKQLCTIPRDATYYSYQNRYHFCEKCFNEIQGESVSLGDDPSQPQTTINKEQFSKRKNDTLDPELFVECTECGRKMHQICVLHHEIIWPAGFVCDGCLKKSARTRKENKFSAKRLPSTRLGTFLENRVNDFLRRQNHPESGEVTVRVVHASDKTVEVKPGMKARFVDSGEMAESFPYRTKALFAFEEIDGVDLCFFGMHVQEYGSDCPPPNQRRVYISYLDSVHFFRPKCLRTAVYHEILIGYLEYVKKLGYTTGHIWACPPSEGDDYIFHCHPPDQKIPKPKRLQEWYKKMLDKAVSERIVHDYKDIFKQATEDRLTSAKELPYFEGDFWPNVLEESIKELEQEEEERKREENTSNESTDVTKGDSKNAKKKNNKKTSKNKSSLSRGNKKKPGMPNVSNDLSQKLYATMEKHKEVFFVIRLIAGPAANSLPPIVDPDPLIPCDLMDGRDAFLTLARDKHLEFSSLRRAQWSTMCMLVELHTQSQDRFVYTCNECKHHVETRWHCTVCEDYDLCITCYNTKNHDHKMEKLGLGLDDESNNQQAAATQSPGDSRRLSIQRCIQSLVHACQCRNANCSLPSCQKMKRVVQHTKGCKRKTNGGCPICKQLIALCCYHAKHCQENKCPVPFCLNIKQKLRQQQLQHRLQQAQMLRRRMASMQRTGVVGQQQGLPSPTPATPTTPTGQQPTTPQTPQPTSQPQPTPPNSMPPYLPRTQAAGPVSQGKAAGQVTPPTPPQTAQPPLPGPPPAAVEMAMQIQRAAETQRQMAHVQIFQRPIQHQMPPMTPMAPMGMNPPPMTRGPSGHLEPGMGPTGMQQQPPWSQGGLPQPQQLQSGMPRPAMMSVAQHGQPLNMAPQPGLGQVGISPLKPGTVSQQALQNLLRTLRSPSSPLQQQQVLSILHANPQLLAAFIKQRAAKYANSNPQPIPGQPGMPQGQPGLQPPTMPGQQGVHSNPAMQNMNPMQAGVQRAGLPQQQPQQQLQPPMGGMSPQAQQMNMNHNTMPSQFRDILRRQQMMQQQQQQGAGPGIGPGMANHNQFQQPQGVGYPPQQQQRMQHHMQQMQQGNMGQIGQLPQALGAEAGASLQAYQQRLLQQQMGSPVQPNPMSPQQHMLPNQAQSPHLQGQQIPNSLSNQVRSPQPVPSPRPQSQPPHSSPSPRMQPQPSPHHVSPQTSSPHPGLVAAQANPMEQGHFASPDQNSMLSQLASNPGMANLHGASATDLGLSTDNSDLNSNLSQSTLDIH

Row | Compound | Brain penetration [1] | Memory retention in probe trial (time in target vs non-target quadrant) (PS19 mice [2]) | Spatial learning (learning curve) (PS19 mice [2]) | Hippocampal volume (PS19 mice [3]) | Number of NeuN-positive cells in hippocampal section (PS19 mice [3]) | t-tau levels in PS19 mice (PS19 mice [4]; PS19 mice) | p300 HAT activity as measured by levels of histone acetylation (ac-H2A/H2A) (PS19 mice [4]; [8]) | p300 levels (p300/GAPDH) (PS19 mice [4]; [8]) | AT-8 positive phospho-tau levels (p-tau/t-tau) (PS19 mice [4]; [9]) | ac-tau levels (ac-tau/t-tau) (PS19 mice [4]; [9]) | Ac-H2AK5 levels (AAV-K174Q-injected mice; AAV-K174Q-injected mice, SSA daily, vs vehicle) | AT8-positive p-tau normalized by t-tau or GAPDH (AAV-K174Q-injected mice; [10]) | Hippocampal atrophy (hippocampal volume) (AAV-K174Q-injected mice; [10]) | PHF1-positive p-tau relative to t-tau (AAV-K174Q-injected mice; [10]) | Levels of t-tau (ELISA) (AAV-K174Q-injected mice; K174Q injected mice, vs vehicle treated controls) | Number of Gallyas silver-positive neurons and neurites in cortex and hippocampus (PS19 mice [5]) | AT8-positive phospho-tau level (p-tau/t-tau) [6] | Ac-tau level (ac-tau/t-tau) [6] | Tau-lowering effect with K174Q mutation [7] | p300 inhibition (p300)
1 | O=C(Oc1ccccc1C(=O)O)c1ccccc1O [salsalate] | readily penetrates into the brain | significantly rescued the deficit | did not rescue the learning deficit | did not show any hippocampal volume loss | did not show any significant difference compared to wild-type | tau-lowering effects | significant reduction of p300 HAT activity | trend of reduction in p300 levels | trend of reduction in AT-8 positive phospho-tau levels, although the difference was not significant | significantly lower ac-tau levels | reduced | not affected | failed to prevent/reduce hippocampal atrophy | not affected | failed to reduce levels of t-tau | reduced the number of Gallyas silver-positive neurons and neurites |  |  |  | 
2 | O=C(O)c1ccccc1O [salicylate, Salicylic acid] |  |  |  |  |  |  |  |  |  |  |  |  |  |  |  |  | reduced | significantly reduced by salicylate in a dose-dependent manner | abolished the tau-lowering effects | p300 inhibitor
